What was measured:
[1] = target: T1, Serine/threonine-protein kinase Sgk1 (Homo sapiens, UniProt O00141); test: Inhibition of SGK
T1 sequence (O00141 whole entry): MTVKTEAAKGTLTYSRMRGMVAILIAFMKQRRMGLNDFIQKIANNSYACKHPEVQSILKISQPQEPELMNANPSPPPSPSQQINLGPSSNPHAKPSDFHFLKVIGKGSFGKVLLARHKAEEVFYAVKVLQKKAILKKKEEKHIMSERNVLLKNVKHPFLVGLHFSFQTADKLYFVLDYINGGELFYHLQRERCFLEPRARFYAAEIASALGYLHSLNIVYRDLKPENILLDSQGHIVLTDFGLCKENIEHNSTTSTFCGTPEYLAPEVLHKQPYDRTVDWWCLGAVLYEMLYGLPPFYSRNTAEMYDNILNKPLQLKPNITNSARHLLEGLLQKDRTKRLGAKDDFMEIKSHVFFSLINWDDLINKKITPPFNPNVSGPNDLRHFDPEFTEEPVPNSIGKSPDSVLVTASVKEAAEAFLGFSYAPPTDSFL

[2] = target: Proto-oncogene tyrosine-protein kinase Src (Homo sapiens, UniProt P12931); test: Inhibition of Src
[3] = target: Mitogen-activated protein kinase 1 (Homo sapiens, UniProt P28482); test: Inhibition of MAPK
[4] = target: Vascular endothelial growth factor receptor 2 (Homo sapiens, UniProt P35968)
[5] = target: cAMP-dependent protein kinase (PKA) (Homo sapiens, UniProt P22694+P17612+P22612); test: Inhibition of PKA; format: protein assay
MAP kinase p38 = MAP kinase p38 (Homo sapiens, UniProt O15264+Q15759+Q16539+P53778)
[6] = target: AMP-activated protein kinase, AMPK; test: Inhibition of AMPK; format: protein-complex assay
[7] = target: Glycogen synthase kinase-3 beta (Homo sapiens, UniProt P49841); test: Inhibition of GSK3-beta
[8] = target: T2, Serine/threonine-protein kinase Chk1 (Homo sapiens, UniProt O14757); test: Inhibition of CHK1
T2 sequence (O14757 whole entry): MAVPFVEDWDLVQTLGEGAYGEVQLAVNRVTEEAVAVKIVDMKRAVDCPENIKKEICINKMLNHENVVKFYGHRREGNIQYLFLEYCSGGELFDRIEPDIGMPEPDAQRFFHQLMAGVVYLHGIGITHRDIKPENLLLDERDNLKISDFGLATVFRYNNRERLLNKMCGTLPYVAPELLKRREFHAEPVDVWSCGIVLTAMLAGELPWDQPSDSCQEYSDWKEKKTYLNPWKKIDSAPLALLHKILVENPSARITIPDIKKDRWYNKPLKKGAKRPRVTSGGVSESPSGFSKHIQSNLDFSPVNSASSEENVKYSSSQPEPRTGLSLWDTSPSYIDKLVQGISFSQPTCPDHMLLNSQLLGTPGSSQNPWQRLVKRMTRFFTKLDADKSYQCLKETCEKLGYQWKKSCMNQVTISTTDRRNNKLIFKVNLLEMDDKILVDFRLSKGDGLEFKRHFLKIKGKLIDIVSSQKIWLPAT

[9] = target: Rho-associated protein kinase 2 (Homo sapiens, UniProt O75116); test: Inhibition of ROCK2
[10] = target: c-Jun N-terminal kinase, JNK (Homo sapiens, UniProt P45983+P53779+P45984); test: Inhibition of JNK; format: protein assay
[11] = target: Tyrosine-protein kinase Lck (Homo sapiens, UniProt P06239)
[12] = Inhibition of CDK

Chain of Rho-associated protein kinase 2 (O75116 whole entry): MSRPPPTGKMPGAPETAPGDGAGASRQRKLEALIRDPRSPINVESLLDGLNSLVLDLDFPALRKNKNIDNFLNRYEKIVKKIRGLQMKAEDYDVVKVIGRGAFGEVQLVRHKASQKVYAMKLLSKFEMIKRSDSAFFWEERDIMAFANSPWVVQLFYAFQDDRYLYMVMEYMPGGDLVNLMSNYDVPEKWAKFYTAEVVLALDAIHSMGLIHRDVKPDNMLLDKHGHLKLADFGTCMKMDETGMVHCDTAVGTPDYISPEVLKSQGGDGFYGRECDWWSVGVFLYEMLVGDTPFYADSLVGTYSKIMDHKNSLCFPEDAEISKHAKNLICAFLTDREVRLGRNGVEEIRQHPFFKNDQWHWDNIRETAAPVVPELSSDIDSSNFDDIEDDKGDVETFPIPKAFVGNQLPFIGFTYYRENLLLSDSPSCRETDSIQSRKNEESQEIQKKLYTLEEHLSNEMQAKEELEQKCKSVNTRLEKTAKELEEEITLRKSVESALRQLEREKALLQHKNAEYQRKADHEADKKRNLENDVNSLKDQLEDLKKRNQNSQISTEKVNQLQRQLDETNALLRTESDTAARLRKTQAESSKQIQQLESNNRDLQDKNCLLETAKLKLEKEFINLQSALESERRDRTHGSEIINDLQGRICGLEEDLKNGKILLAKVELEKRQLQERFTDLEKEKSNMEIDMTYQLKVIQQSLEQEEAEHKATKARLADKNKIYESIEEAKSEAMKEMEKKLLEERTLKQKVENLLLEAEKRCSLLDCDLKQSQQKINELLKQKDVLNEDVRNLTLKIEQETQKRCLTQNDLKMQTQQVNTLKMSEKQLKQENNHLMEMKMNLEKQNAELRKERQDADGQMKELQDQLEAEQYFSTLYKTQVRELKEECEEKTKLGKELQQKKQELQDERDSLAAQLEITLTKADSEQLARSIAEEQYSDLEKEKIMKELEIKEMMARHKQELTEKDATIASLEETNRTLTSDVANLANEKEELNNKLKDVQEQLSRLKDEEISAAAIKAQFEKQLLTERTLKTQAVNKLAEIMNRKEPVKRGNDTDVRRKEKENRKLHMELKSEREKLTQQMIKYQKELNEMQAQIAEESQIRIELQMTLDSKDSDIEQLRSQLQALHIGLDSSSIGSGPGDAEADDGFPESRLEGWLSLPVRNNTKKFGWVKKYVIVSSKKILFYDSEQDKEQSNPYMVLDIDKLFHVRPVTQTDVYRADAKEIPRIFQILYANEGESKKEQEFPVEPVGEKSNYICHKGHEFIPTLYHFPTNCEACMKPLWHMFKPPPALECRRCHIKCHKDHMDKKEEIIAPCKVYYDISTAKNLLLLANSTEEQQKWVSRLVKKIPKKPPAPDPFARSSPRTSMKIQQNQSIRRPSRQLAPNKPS
Chain of Tyrosine-protein kinase Lck (P06239 whole entry): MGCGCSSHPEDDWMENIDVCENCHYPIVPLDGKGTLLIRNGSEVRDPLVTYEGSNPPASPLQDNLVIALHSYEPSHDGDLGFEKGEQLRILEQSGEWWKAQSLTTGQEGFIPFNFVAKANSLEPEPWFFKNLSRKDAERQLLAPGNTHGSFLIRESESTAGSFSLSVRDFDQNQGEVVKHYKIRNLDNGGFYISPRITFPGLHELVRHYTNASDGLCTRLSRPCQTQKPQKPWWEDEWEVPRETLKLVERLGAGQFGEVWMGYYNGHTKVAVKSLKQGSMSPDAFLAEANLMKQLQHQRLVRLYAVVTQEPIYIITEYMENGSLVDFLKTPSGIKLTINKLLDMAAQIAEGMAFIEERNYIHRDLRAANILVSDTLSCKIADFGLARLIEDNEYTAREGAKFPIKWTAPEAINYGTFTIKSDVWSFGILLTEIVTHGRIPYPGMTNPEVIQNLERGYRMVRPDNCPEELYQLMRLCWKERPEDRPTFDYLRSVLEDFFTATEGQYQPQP
Chain of Vascular endothelial growth factor receptor 2 (P35968 whole entry): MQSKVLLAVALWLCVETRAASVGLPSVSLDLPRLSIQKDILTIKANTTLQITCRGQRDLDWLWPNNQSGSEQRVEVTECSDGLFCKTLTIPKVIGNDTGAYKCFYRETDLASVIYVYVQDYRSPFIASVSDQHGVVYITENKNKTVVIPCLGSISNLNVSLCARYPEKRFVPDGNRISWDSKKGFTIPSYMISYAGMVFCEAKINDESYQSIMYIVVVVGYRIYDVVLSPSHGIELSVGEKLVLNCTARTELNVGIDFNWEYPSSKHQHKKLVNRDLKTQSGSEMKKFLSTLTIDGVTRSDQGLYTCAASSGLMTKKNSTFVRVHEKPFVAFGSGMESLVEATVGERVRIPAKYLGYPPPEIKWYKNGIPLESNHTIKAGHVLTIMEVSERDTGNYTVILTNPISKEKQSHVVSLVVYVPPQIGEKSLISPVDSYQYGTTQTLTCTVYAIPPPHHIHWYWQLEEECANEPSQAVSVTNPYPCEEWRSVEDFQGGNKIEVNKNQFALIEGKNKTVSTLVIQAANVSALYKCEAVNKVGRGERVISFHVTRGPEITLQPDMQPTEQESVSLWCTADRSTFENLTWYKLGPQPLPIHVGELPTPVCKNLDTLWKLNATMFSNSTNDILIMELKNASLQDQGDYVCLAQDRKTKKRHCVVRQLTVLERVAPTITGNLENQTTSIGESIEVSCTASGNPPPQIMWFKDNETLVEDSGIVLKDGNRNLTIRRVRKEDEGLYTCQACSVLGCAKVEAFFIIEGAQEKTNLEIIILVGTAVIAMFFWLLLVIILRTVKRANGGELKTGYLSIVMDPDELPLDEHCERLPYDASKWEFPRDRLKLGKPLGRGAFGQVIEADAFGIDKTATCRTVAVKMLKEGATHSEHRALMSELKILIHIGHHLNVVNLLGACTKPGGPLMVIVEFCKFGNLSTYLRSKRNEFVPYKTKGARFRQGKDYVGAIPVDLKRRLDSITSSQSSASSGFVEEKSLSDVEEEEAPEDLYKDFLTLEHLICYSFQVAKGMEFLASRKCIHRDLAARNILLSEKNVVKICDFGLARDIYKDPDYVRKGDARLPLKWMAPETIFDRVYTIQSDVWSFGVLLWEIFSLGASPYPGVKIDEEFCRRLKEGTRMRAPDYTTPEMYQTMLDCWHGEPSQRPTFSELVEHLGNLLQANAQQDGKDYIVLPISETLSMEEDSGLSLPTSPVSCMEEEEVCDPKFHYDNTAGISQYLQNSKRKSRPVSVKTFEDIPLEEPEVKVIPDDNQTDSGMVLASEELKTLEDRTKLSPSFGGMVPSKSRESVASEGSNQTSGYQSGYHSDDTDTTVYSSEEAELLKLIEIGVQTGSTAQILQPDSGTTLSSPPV
Chain of Mitogen-activated protein kinase 1 (P28482 whole entry): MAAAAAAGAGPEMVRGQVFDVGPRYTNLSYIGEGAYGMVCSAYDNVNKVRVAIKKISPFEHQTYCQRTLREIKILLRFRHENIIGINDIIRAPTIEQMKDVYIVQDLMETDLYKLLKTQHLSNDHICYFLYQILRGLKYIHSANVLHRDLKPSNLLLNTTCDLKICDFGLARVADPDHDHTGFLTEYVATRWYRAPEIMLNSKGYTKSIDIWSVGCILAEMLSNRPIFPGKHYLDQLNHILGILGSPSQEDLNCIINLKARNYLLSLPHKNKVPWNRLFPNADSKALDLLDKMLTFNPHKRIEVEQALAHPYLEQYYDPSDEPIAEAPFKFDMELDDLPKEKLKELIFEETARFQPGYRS
Chain of Glycogen synthase kinase-3 beta (P49841 whole entry): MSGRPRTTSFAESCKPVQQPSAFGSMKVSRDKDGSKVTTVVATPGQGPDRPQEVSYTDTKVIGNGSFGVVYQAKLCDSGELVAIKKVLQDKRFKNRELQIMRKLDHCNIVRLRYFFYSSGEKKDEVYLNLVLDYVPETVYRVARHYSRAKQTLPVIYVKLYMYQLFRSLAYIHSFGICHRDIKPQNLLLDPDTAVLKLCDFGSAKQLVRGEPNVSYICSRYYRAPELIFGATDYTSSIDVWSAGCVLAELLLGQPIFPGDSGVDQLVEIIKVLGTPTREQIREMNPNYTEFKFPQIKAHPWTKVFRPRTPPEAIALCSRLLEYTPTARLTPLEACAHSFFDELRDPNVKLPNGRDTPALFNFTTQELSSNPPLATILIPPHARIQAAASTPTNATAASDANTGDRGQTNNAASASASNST
Chain of Proto-oncogene tyrosine-protein kinase Src (P12931 2-536 limits assumed): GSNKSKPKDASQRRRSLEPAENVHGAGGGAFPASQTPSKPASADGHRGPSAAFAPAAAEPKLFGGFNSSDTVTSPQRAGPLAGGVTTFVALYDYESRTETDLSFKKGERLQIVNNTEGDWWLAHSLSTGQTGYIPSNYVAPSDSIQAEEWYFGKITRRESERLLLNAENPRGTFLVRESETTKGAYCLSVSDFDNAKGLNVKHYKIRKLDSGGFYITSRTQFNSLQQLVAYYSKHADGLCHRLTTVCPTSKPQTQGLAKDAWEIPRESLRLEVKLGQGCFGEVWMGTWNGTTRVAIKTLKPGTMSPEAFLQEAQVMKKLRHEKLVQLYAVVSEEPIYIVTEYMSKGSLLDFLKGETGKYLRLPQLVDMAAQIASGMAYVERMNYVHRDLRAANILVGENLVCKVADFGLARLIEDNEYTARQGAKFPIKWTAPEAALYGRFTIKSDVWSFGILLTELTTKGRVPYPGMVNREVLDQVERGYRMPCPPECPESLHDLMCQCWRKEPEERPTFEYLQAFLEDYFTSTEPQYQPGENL

Row | IC50 [1] | IC50 [2] | IC50 [3] | IC50 [4] | IC50 [5] | IC50 (MAP kinase p38) | IC50 [6] | IC50 [7] | IC50 [8] | IC50 [9] | IC50 [10] | IC50 [11] | IC50 [12] | SMILES
1 | > 10 µM | > 10 µM | > 10 µM | > 10 µM | > 10 µM | > 10 µM | > 10 µM | > 10 µM | > 10 µM | > 10 µM | > 10 µM |  |  | COc1cc2ncnc(Nc3cccc(Cl)c3F)c2cc1CN1CCC1C(N)=O (configuration not stated)
2 | > 10 µM | > 10 µM | > 10 µM | > 10 µM | > 10 µM | > 10 µM | > 10 µM | > 10 µM | > 10 µM | > 10 µM | > 10 µM |  |  | COc1cc2ncnc(Nc3cccc(Cl)c3F)c2cc1CN(C)[C@@H](CO)C(N)=O
3 | > 10 µM | > 10 µM | > 10 µM | > 10 µM | > 10 µM | > 10 µM | > 10 µM | > 10 µM | > 10 µM | > 10 µM | > 10 µM |  |  | COc1cc2ncnc(Nc3cccc(Cl)c3F)c2cc1CN(C)C1CCNC1=O (configuration not stated)
4 | > 10 µM | > 10 µM | > 10 µM | > 10 µM | > 10 µM | > 10 µM | > 10 µM | > 10 µM | > 10 µM | > 10 µM | > 10 µM |  |  | COC[C@@H](C(N)=O)N(C)Cc1cc2c(Nc3cccc(Cl)c3F)ncnc2cc1OC
5 | > 10 µM | > 10 µM | > 10 µM | > 10 µM |  |  | > 10 µM | > 10 µM | > 10 µM | > 10 µM | > 10 µM | > 10 µM |  | COc1cc2ncnc(Nc3cccc(Cl)c3F)c2cc1CN1CC[C@H](C(N)=O)C1
6 | > 10 µM | > 10 µM | > 10 µM | > 10 µM | > 10 µM | > 10 µM | > 10 µM | > 10 µM | > 10 µM | > 10 µM | > 10 µM | > 10 µM | > 10 µM | COc1cc2ncnc(Nc3cccc(Cl)c3F)c2cc1CN(C)[C@@H](CN(C)C)C(N)=O
7 | > 10 µM | > 10 µM | > 10 µM | > 10 µM | > 10 µM |  | > 10 µM | > 10 µM | > 10 µM | > 10 µM | > 10 µM | > 10 µM |  | COCCN(Cc1cc2c(Nc3cccc(Cl)c3F)ncnc2cc1OC)[C@@H](C)C(N)=O

The remaining lines, values behind:

Row | SMILES | IC50 [1] | IC50 [2] | IC50 [3] | IC50 [4] | IC50 [5] | IC50 (MAP kinase p38) | IC50 [6] | IC50 [7] | IC50 [8] | IC50 [9] | IC50 [10] | IC50 [11] | IC50 [12]
8 | COc1cc2ncnc(Nc3cccc(Cl)c3F)c2cc1CN1CCN(C)CC1C(N)=O (configuration not stated) | > 10 µM | > 10 µM | > 10 µM | > 10 µM | > 10 µM | > 10 µM | > 10 µM | > 10 µM | > 10 µM | > 10 µM | > 10 µM |  | 
9 | COc1cc2ncnc(Nc3cccc(Cl)c3F)c2cc1CN1CCCC[C@@H]1C(N)=O | > 10 µM | > 10 µM | > 10 µM | > 10 µM | > 10 µM | > 10 µM | > 10 µM | > 10 µM | > 10 µM | > 10 µM | > 10 µM | > 10 µM | > 10 µM
10 | COc1cc2ncnc(Nc3ccc(F)c(Cl)c3)c2cc1CN1CCC[C@@H]1C(N)=O | > 10 µM | > 10 µM | > 10 µM | > 10 µM | > 10 µM | > 10 µM | > 10 µM | > 10 µM | > 10 µM | > 10 µM | > 10 µM |  | > 10 µM
11 | COc1cc2ncnc(Nc3cccc(Cl)c3F)c2cc1CN1CC(C(N)=O)C1 | > 10 µM | > 10 µM | > 10 µM | > 10 µM | > 10 µM |  | > 10 µM | > 10 µM | > 10 µM | > 10 µM | > 10 µM |  | 
12 | COc1cc2ncnc(Nc3cccc(Cl)c3F)c2cc1CN1C[C@H](OC)C[C@@H]1C(N)=O | > 10 µM | > 10 µM | > 10 µM | > 10 µM |  |  | > 10 µM | > 10 µM | > 10 µM | > 10 µM | > 10 µM |  | 
13 | COCC[C@@H](C(N)=O)N(C)Cc1cc2c(Nc3cccc(Cl)c3F)ncnc2cc1OC | > 10 µM | > 10 µM | > 10 µM | > 10 µM | > 10 µM | > 10 µM | > 10 µM | > 10 µM | > 10 µM | > 10 µM | > 10 µM | > 10 µM | > 10 µM
14 | COc1cc2ncnc(Nc3cccc(Cl)c3F)c2cc1CN1CCOCC1C(N)=O (configuration not stated) | > 10 µM | > 10 µM | > 10 µM | > 10 µM | > 10 µM |  | > 10 µM | > 10 µM | > 10 µM | > 10 µM | > 10 µM | > 10 µM | 
15 | COc1cc2ncnc(Nc3cccc(Cl)c3F)c2cc1CN1CCC[C@@H]1C(N)=O | > 10 µM | > 10 µM | > 10 µM | > 10 µM | > 10 µM |  | > 10 µM | > 10 µM | > 10 µM | > 10 µM | > 10 µM | > 10 µM | > 10 µM
16 | CNC(=O)[C@@H](C)N(C)Cc1cc2c(Nc3cccc(Cl)c3F)ncnc2cc1OC | > 10 µM | > 10 µM | > 10 µM | > 10 µM | > 10 µM | > 10 µM | > 10 µM | > 10 µM | > 10 µM | > 10 µM | > 10 µM | > 10 µM | > 10 µM
17 | COc1cc2ncnc(Nc3cccc(Cl)c3F)c2cc1CN(CCN(C)C)[C@@H](C)C(N)=O | > 10 µM | > 10 µM | > 10 µM | > 10 µM | > 10 µM |  | > 10 µM | > 10 µM | > 10 µM | > 10 µM | > 10 µM | > 10 µM | 
18 | COc1cc2ncnc(Nc3cccc(Cl)c3F)c2cc1CN(C)[C@H](C)C(=O)N(C)C | > 10 µM | > 10 µM | > 10 µM | > 10 µM | > 10 µM |  | > 10 µM | > 10 µM | > 10 µM | > 10 µM | > 10 µM |  | 
19 | COc1cc2ncnc(Nc3ccc(F)c(Cl)c3)c2cc1CN1CCC[C@H]1C(N)=O | > 10 µM | > 10 µM | > 10 µM | > 10 µM | > 10 µM | > 10 µM | > 10 µM | > 10 µM | > 10 µM | > 10 µM | > 10 µM |  | > 10 µM
20 | COc1cc2ncnc(Nc3cccc(Cl)c3F)c2cc1CN1CCC[C@@H]1C(=O)N(C)C | > 10 µM | > 10 µM | > 10 µM | > 10 µM | > 10 µM |  | > 10 µM | > 10 µM | > 10 µM | > 10 µM | > 10 µM |  | 
21 | CNC(=O)[C@H]1CCCN1Cc1cc2c(Nc3cccc(Cl)c3F)ncnc2cc1OC | > 10 µM | > 10 µM | > 10 µM | > 10 µM | > 10 µM | > 10 µM | > 10 µM | > 10 µM | > 10 µM | > 10 µM | > 10 µM |  | 
22 | COc1cc2ncnc(Nc3cccc(Cl)c3F)c2cc1CN1CCCC1 | > 10 µM | > 10 µM | > 10 µM | > 10 µM | > 10 µM |  | > 10 µM | > 10 µM | > 10 µM | > 10 µM | > 10 µM | > 10 µM | 

Source: ChEMBL document CHEMBL1147701, “Novel 4-anilinoquinazolines with C-6 carbon-linked side chains: synthesis and structure-activity relationship of a series of potent, orally active, EGF receptor tyrosine kinase inhibitors” (Bioorg Med Chem Lett, 2006)
